Reference: patent publication US20070116822A1, “HIGH-POTENCY SWEETENER COMPOSITION WITH SAPONIN AND COMPOSITIONS SWEETENED THEREWITH” (THE COCA-COLA COMPANY, priority 2005, published 2007)

Columns and labels:
[1] = Sensory evaluation of sweetness linger by a panel of experts; assay type: in vivo; design: key: 0=no sweetness linger; 1=very slight sweetness linger; 2=slight sweetness linger; 3=moderate sweetness linger; 4=moderately high sweetness linger; 5=high sweetness linger; details: for Sweetness linger rating: scale 0-5; for Sweetness Linger rating (defined scale anchors): rating defined for the protocol, REBA control sample 500 ppm
Experimental: As used herein, the phrases “sugar-like characteristic,” “sugar-like taste,” “sugar-like sweet,” “sugary,” and “sugar-like” are synonymous. […] These characteristics are dimensions in which the taste of sucrose is different from the tastes of natural and synthetic high-potency sweeteners. Whether or not a characteristic is more sugar-like is determined by expert sensory panel assessments of sugar and compositions comprising at least one natural and/or synthetic high-potency sweetener, both with and without a sweet taste improving composition. Such assessments quantify similarities of the characteristics of compositions comprising at least one natural and/or synthetic high-potency sweetener, both with and without a sweet taste improving composition, with those comprising sugar. Suitable procedures for determining whether a composition has a more sugar-like taste are well known in the art.
In a particular embodiment, a panel of assessors is used to measure the reduction of sweetness linger. Briefly described, a panel of assessors (generally 8 to 12 individuals) is trained to evaluate sweetness perception and measure sweetness at several time points from when the sample is initially taken into the mouth until 3 minutes after it has been expectorated. […] A decrease in score for a time point measured after the sample has cleared the mouth indicates there has been a reduction in sweetness perception.
The panel of assessors may be trained using procedures well known to those of ordinary skill in the art. In a particular embodiment, the panel of assessors may be trained using the Spectrum™ Descriptive Analysis Method (Meilgaard et al, Sensory Evaluation Techniques, 3rd edition, Chapter 11). Desirably, the focus of training should be the recognition of and the measure of the basic tastes; specifically, sweet. In order to ensure accuracy and reproducibility of results, each assessor should repeat the measure of the reduction of sweetness linger about three to about five times per sample, taking at least a five minute break between each repetition and/or sample and rinsing well with water to clear the mouth.
Generally, the method of measuring sweetness comprises taking a 10 mL sample into the mouth, holding the sample in the mouth for 5 seconds and gently swirling the sample in the mouth, rating the sweetness intensity perceived at 5 seconds, expectorating the sample (without swallowing following expectorating the sample), rinsing with one mouthful of water (e.g., vigorously moving water in mouth as if with mouth wash) and expectorating the rinse water, rating the sweetness intensity perceived immediately upon expectorating the rinse water, waiting 45 seconds and, while wating those 45 seconds, identifying the time of maximum perceived sweetness intensity and rating the sweetness intensity at that time (moving the mouth normally and swallowing as needed), rating the sweetness intensity after another […], rating the sweetness intensity after another 60 seconds (cumulative 120 seconds after rinse), and rating the sweetness intensity after still another 60 seconds (cumulative 180 seconds after rinse). Between samples take a 5 minute break, rinsing well with water to clear the mouth.
Sensory evaluation of the samples prepared in Example Set G was carried out under the following protocol, similar to that described hereinabove. In this test protocol, none of the samples were swallowed. All samples were expectorated and the mouth was rinsed with water after the tasting. Immediately upon sensing maximal sweetness, the sample was expectorated, the mouth was rinsed with water and the rate of sweetness decay (“Sweetness Linger”) was measured, where attention was focused on the sweetness 3-4 min after the water rinse. After sample tasting was complete, a salty oyster cracker was chewed followed by a water rinse, and at least 5 minutes followed before tasting the next sample. […]

[2] = assay type: physicochemical
Experimental: A solution of rebaudioside A (>97% pure by HPLC ) was prepared in double distilled water (12.5 gm in 50 mL, 25% concentration) by stirring the mixture at 40° C. for 5 minutes. An amorphous form of rebaudioside A was formed by immediately using the clear solution for spray drying with the Lab-Plant spray drier SD-04 instrument (Lab-Plant Ltd., West Yorkshire, U.K.). The solution was fed through the feed pump into the nozzle atomizer which atomized it into a spray of droplets with the help of a constant flow of nitrogen/air. […] This dry powder (11-12 g, H2O 6.74%) was discharged continuously from the drying chamber and was collected in a bottle.

[3] = Example Set G, citric acid/potassium citrate composition equivalent to diet lemon-lime beverage, sweetness 3-4 min after water rinse
[4] = Example Set H, carbon-treated water, phosphoric acid (75%) to pH 2.4-2.5, protocol of Example Set G

Solubility in water at room temperature [2] | Compound | Sweetness linger rating [1, 3] | Sweetness linger rating [1, 4] | Sweetness Linger rating (defined scale anchors) [1]
– | OC[C@H]1O[C@@](CO)(O[C@H]2O[C@H](CO)[C@@H](O)[C@H](O)[C@H]2O)[C@@H](O)[C@@H]1O [sugar, sucrose] | 0 | 0 | 0
– | rebaudioside A | 5 | 5 | 5
> 35.0% | rebaudioside A [Form 4] | – | – | –
